Experimental findings from patent publication US20180099937A1, “NOVEL ARYL-CYANOGUANIDINE COMPOUNDS” (Bayer Pharma Aktiengesellschaft, priority 2015, published 2018) are described below.

The target of the experiment is SMYD2 (Homo sapiens, UniProt Q9NRG4). Briefly: Scintillation Proximity Assay (SPA) for detection of SMYD2 enzymatic inhibition. Type of experiment: biochemical. Further details: The SMYD2 full length enzyme was produced in-house by expression (with an N-terminal 6× His tag) in E. coli; 6xHis (N); made in house; host or cells: E. coli. The following applies: SMYD2 full length enzyme, p53 Peptide substrate 1.0 μM, 3H-SAM 60 nM; read-out: IC50 [mol/l] (SPA Assay). An excerpt:
1.1 Scintillation Proximity Assay (SPA) for Detection of SMYD2 Enzymatic Inhibition
SMYD2 inhibitory activities of the compounds described in the present invention were quantified using a scintillation proximity assay (SPA) which measures methylation by the enzyme of the synthetic, biotinylated peptide Btn-Ahx-[…]—Amid×TFA (Biosyntan) derived from p53 and referred to from here on as “p53 Peptide”. The SMYD2 full length enzyme was produced in-house by expression (with an N-terminal 6× His tag) in E. coli and purification by affinity chromatography on a Ni-NTA Sepharose column followed by a size exclusion chromatography step on a Superdex 200 16/60 column (GE Healthcare).
In a typical assay 11 different concentrations of each compound (0.1 nM, 0.33 nM, 1.1 nM, 3.8 nM, 13 nM, 44 nM, 0.15 μM, 0.51 μM, 1.7 μM, 5.9 μM and 20 μM) were tested in duplicate within the same microtiter plate. To this end, 100-fold concentrated compound solutions (in DMSO) were previously prepared by serial dilution (1:3.4) of 2 mM stocks in a clear low volume 384-well source microliter plate (Greiner Bio-One), from which 50 nl of compound solutions were transferred into a white low volume test microtiter plate from the same supplier. Subsequently, 2.5 μl SMYD2 in aqueous assay buffer [50 mM Tris/HCl pH 9.0 (AppliChem), 1 mM dithiothreitol (DTT, Sigma), 0.01% (w/v) bovine serum albumine (BSA, Sigma), 0.0022% (v/v) Pluronic (Sigma)] were added to the compounds in the test plate to a final enzyme concentration of —typically—3 nM (this parameter was adjusted depending on the activity of the enzyme lot in order to be within the linear dynamic range of the assay). The samples were then incubated for 15 min at 22° C. to allow pre-equilibration of the putative enzyme-inhibitor complexes before the start of the methylation reaction, which was initiated by the addition of 2.5 μl 2-fold concentrated solution (in assay buffer) of titriated S-Adenosyl-L-Methionine (3H-SAM, Perkin Elmer, final concentration: 60 nM) and p53 Peptide substrate (final concentration: 1.0 μM). The resulting mixture (5 μl final volume) was shortly centrifuged (2 min., 1500 rpm) and incubated at 22° C. during 30 min. Thereupon the reaction was stopped by adding 3 μl of Streptavidin PS SPA imaging beads (Perkin Elmer, final concentration of 3.12 μg/μl) and “cold” SAM (AK Scientific, 25 μM final concentration) for non-specific binding reduction. Plates containing the stopped reaction were sealed with transparent adhesive foil (Perkin Elmer), centrifuged (2 min., 1500 rpm), and further incubated for —at least—1 h at RT (or overnight at 4° C.) in order to allow the SPA signals to develop. Subsequently, the amount of product was evaluated by measuring the energy transfer from the β-particles emitted by the 3H-labeled substrate to the Europium scintillator co-polymerized in the polystyrene matrix of the PS imaging beads, using the standard settings for this purpose of a Viewlux (Perkin-Elmer) CCD plate imaging device (emission filter 613/55 (IFP). The resulting scintillation counts were taken as indicator for the amount of methylated peptide per well. The data were normalised using two sets of control wells (typically 16 each) for high−(=enzyme reaction with DMSO instead of test compound=0% =Minimum inhibition) and low−(=all assay components without enzyme=100% =Maximum inhibition) SMYD2 activity. IC50 values were calculated by fitting the normalized inhibition data to a 4-parameter logistic equation using the “Screener” analysis software from Genedata.
A general note: In a scintillation proximity assay essentially only radioactivity close to the scintillant gives light.

Sequence of SMYD2 (Q9NRG4 whole entry): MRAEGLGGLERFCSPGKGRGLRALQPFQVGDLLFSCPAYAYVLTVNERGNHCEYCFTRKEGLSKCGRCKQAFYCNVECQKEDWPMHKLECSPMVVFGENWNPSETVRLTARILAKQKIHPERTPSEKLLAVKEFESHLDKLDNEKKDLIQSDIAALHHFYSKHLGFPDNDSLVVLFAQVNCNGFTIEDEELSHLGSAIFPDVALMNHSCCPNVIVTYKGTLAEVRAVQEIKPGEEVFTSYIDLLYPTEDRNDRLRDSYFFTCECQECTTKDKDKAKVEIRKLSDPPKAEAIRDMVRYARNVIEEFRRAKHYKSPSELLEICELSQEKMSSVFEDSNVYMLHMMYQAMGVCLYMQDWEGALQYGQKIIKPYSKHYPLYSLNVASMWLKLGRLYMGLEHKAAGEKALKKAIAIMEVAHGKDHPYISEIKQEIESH

`CCN(C(=O)[C@H]1CCCN1)C1CN(/C(=N\C#N)Nc2cccc(OC(F)(F)F)c2F)N=C1c1ccc(Cl)c(Cl)c1` (mixture of isomers) [Example 21, N-[1-{N′-Cyano-N-[2-fluoro-3-(trifluoromethoxy)phenyl]carbamimidoyl}-3-(3,4-dichlorophenyl)-4,5-dihydro-1H-pyrazol-4-yl]-N-ethyl-D-prolinamide]: the IC50 is 50.5 nM.

On to `CCN(C(=O)[C@H]1CCCN1)C1CN(/C(=N\C#N)Nc2cccc(OC(F)F)c2F)N=C1c1ccc(Cl)c(Cl)c1` (single isomer, unassigned) [Example 13.2, N-[1-{N′-Cyano-N-[3-(difluoromethoxy)-2-fluorophenyl]carbamimidoyl}-3-(3,4-dichlorophenyl)-4,5-dihydro-1H-pyrazol-4-yl]-N-ethyl-D-prolinamide], for which the IC50 turned out to be 268 nM.

Take `CCN(C(=O)[C@H]1CCCN1)C1CN(/C(=N\C#N)Nc2ccc(F)c(OC(F)(F)F)c2)N=C1c1ccc(Cl)c(Cl)c1` (single isomer, unassigned) [Example 22.2, N-[1-{N′-Cyano-N-[4-fluoro-3-(trifluoromethoxy)phenyl]carbamimidoyl}-3-(3,4-dichlorophenyl)-4,5-dihydro-1H-pyrazol-4-yl]-N-ethyl-D-prolinamide]: the IC50 came to 296 nM.

With `CCN(C(=O)[C@H]1CCCN1)C1CN(/C(=N\C#N)Nc2cc(C(F)(F)F)ccc2OC(F)(F)F)N=C1c1ccc(Cl)c(Cl)c1` (mixture of isomers) [Example 30, N-[1-{N′-Cyano-N-[2-(trifluoromethoxy)-5-(trifluoromethyl)phenyl]carbamimidoyl}-3-(3,4-dichlorophenyl)-4,5-dihydro-1H-pyrazol-4-yl]-N-ethyl-D-prolinamide], the IC50 came to 96.6 nM.

As for `CCN(C(=O)c1cccc(=O)[nH]1)C1CN(/C(=N\C#N)Nc2cccc(OC(F)F)c2)N=C1c1ccc(Cl)c(Cl)c1` (single isomer, unassigned) [Example 5.1, N-[1-{N′-Cyrano-N-[3-(difluoromethoxy)phenyl]carbamimidoyl}-3-(3,4-dichlorophenyl)-4,5-dihydro-1H-pyrazol-1-yl]-N-ethyl-6-oxo-1,6-dihydropyridine-2-carboxamide], the IC50 amounted to 576 nM.

As for `CCN(C(=O)[C@H]1C[C@@H](O)CN1)C1CN(/C(=N\C#N)Nc2cccc(OC(F)F)c2)N=C1c1ccc(Cl)c(C)c1` (single isomer, unassigned) [Example 39.2], the IC50 worked out at 1640 nM.

Regarding `CCN(C(=O)[C@H]1CCCN1)C1CN(/C(=N\C#N)Nc2cccc(CC(F)(F)F)c2)N=C1c1ccc(Cl)c(Cl)c1` (single isomer, unassigned) [Example 31.2, N-[1-{N′-Cyano-N-[3-(2,2,2-trifluoroethyl)phenyl]carbamimidoyl}-3-(3,4-dichlorophenyl)-4,5-dihydro-1H-pyrazol-4-yl]-N-ethyl-D-prolinamide], the IC50 amounted to 211 nM.

In the case of `CCN(C(=O)[C@H]1CCCN1)C1CN(/C(=N\C#N)Nc2cc(OC(F)(F)F)ccc2F)N=C1c1ccc(Cl)c(Cl)c1` (mixture of isomers) [Example 26, N-[1-{N′-Cyano-N-[2-fluoro-5-(trifluoromethoxy)phenyl]carbamimidoyl}-3-(3,4-dichlorophenyl)-4,5-dihydro-1H-pyrazol-4-yl]-N-ethyl-D-prolinamide], the IC50 came to 61.3 nM.

Consider `CCN(C(=O)[C@@H]1CCC[C@@H]1N)C1CN(/C(=N\C#N)Nc2cc(OC)cc(C(F)(F)F)c2)N=C1c1ccc(Cl)c(Cl)c1` (mixture of isomers) [Example 45, (1R,2S)-2-Amino-N-[1-{N′-cyano-N-[3-methoxy-5-(trifluoromethyl)phenyl]carbamimidoyl}-3-(3,4-dichlorophenyl)-4,5-dihydro-1H-pyrazol-4-yl]-N-ethylcyclopentanecarboxamide], for which the IC50 stood at 239 nM.

Consider “(2R)-N-[3-(4-chlaro-3-methylphenyl)-1-{N′-cyano-N-[3-(difluoromethoxy)phenyl]carbamimidoyl}-4,5-dihydro-1H-pyrazol-4-yl]-N-ethylpiperidine-2-carboxamide [Example 46]”, for which the IC50 amounted to 1500 nM.

For the compound `CCN(C(=O)[C@H]1CCCN1)C1CN(/C(=N\C#N)Nc2cccc(CC(F)(F)F)c2)N=C1c1ccc(Cl)c(Cl)c1` (mixture of isomers) [Example 31, N-[1-{N′-Cyano-N-[3-(2,2,2-trifluorelethyl)phenyl]carbamimidayl}-3-(3,4-dichlorophenyl)-4,5-dihydro-1H-pyrazol-4-yl]-N-ethyl-D-prolinamide], the IC50 is 23.7 nM.

As to `CCN(C(=O)[C@H]1C[C@@H](O)CN1)C1CN(/C(=N\C#N)Nc2cc(C(F)(F)F)ccc2OC(F)(F)F)N=C1c1ccc(Cl)c(Cl)c1` (mixture of isomers) [Example 29, (4R)-N-[1-{N′-Cyano-N-[2-(trifluoromethoxy)-5-(trifluoromethyl)phenyl]carbamimidoyl}-3-(3,4-dichlorophenyl)-4,5-dihydro-1H-pyrazol-4-yl]-N-ethyl-4-hydroxy-D-prolinamide], the IC50 is 221 nM.

Consider `CCN(C(=O)[C@H]1C[C@@H](O)CN1)C1CN(/C(=N\C#N)Nc2ccc(F)c(OC(F)F)c2)N=C1c1ccc(Cl)c(Cl)c1` (mixture of isomers) [Example 16, (4R)-N-[1-{N′-Cyano-N-[3-(difluoromethoxy)-4-fluorophenyl]carbamimidoyl}-3-(3,4-dichlorophenyl)-4,5-dihydro-1H-pyrazol-4-yl]-N-ethyl-4-hydroxy-D-prolinamide], for which the IC50 was 111 nM.

On to `CCN(C(=O)[C@H]1CCCN1)C1CN(/C(=N\C#N)Nc2cccc(OC(F)(F)F)c2)N=C1c1ccc(Cl)c(Cl)c1` (single isomer, unassigned) [Example 17.1, N-[1-{N′-Cyano-N-[3-(trifluoromethoxy)phenyl]carbamimidoyl}-3-(3,4-dichlorophenyl)-4,5-dihydro-1H-pyrazol-4-yl]-N-ethyl-D-prolinamide], for which the IC50 came out at 21 nM.

For `CCN(C(=O)[C@H]1C[C@@H](F)CN1)C1CN(/C(=N\C#N)Nc2cccc(OC(F)F)c2)N=C1c1ccc(Cl)c(Cl)c1` (mixture of isomers) [Example 4, (4R)-N-[1-{N′-Cyano-N-[3-(difluoromethoxy)phenyl]carbamimidoyl}-3-(3,4-dichlorophenyl)-4,5-dihydro-1H-pyrazol-4-yl]-N-ethyl-4-fluoro-D-prolinamide], the IC50 amounted to 85.2 nM.

Regarding `CC1(C)CN[C@@H](C(=O)NC2CN(/C(=N\C#N)Nc3cccc(OC(F)F)c3)N=C2c2ccc(Cl)c(Cl)c2)C1` (mixture of isomers) [Example 7, N-[1-{N′-Cyano-N-[3-(difluoromethoxy)phenyl]carbamimidoyl}-3-(3,4-dichlorophenyl)-4,5-dihydro-1H-pyrazol-1-yl]-4,4-dimethyl-D-prolinamide], the IC50 stood at 490 nM.

On to `N#C/N=C(/Nc1cccc(OC(F)F)c1)N1CC(NC(=O)C2(N)CCCC2)C(c2ccc(Cl)c(Cl)c2)=N1` (racemic) [Example 10, rac-1-Amino-N-[1-{N′-cyano-N-[3-(difluoromethoxy)phenyl]carbamimidoyl}-3-(3,4-dichlorophenyl)-4,5-dihydro-1H-pyrazol-4-yl]cyclopentanecarboxamide], for which the IC50 worked out at 748 nM.

`CCN(C(=O)[C@H]1CCCN1)C1CN(/C(=N\C#N)Nc2ccc(F)c(OC)c2)N=C1c1ccc(Cl)c(Cl)c1` (mixture of isomers) [Example 33, N-{1-[N′-Cyano-N-(4-fluoro-3-methoxyphenyl)carbamimidoyl]-3-(3,4-dichlorophenyl)-4,5-dihydro-1H-pyrazol-4-yl}-N-ethyl-D-prolinamide]: the IC50 was 103 nM.
